Assay results: patent publication US20020137929A1, “1 - (3-heterocyclylphenyl) isothiourea, -isourea, -guanidine and -amidine herbicidal agents” (Intellectual Property Department, BASF Aktiengesellschaft, priority 1998, published 2002)

Experiments:
AMBEL (Ragweed, Common) = test: Preemergence herbicidal evaluation; type: in vivo, Ambrosia artemisifolia; conditions: rated 4-5 weeks after treatment
Procedure, shortened: (§1)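 Each species is sown separately in potting soil over roughly an inch of soil before any emergence. The soil surface then receives an aqueous acetone spray delivering about 0.0156 to 0.500 kg/ha of compound. After four to five weeks, injury is scored from 0 to 9 relative to a control.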

ZEAMX (Corn, Field) = test: Postemergence herbicidal evaluation; type: in vivo, Zea mays; conditions: postemergence
Procedure, shortened: (§2)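 Herbicidal effect was judged by eye on a 0–9 scale covering stand, vigor, deformity, size and chlorosis, compared with controls, four to five weeks after seedlings about two weeks old were sprayed (40 psi, ~0.0156–0.500 kg/ha).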

[1] = system: ECHORC (Watergrass (Calif.)); test: Postemergence weed control under flooded paddy conditions; type: in vivo, Echinochloa oryzoides; conditions: postemergence weeds
Procedure, shortened: (§3)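 Herbicidal effect is judged by eye on a 0–9 scale versus control, 3–4 weeks after dosing. Dosing is into flood water kept 1.5–3 cm over the soil, at about 0.0313–0.500 kg/ha in aqueous/acetone 50/50 v/v, on 3–5 cm weeds and 1.5–2.5-leaf rice seedlings.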

CYPIR (Rice Flatsedge) = test: Preemergence weed control under flooded paddy conditions; type: in vivo, Cyperus iria; conditions: rated 3-4 weeks after treatment
Procedure, shortened: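 Visual injury scored 0-9 against control three to four weeks post-treatment, greenhouse-grown. Application: acetone/water (50/50) solutions dosed directly into flood water (1.5-3 cm over silt loam, planted top 0.5 cm), roughly 0.0313 to 0.500 kg/ha active ingredient.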

ORYSAT (Rice, Tebonnet) = test: Postemergence herbicidal evaluation; type: in vivo, Oryza sativa, (L.) Tebonnet; conditions: postemergence
Procedure, shortened: as §2

[2] = system: TRZAWR (Wheat, Winter, cv Riband); test: Postemergence herbicidal evaluation; type: in vivo, Triticum aestivum; conditions: postemergence
Procedure, shortened: as §2

[3] = system: GLXMAW (Soybean, Williams); test: Postemergence herbicidal evaluation; type: in vivo, Glycine max, (L.) Merr. cv Williams; conditions: postemergence
Procedure, shortened: as §2

CYPSE (Flatsedge) = test: Postemergence weed control under flooded paddy conditions; type: in vivo, Cyperus serotinus; conditions: postemergence weeds
Procedure, shortened: as §3

GALAP (Galium) = test: Preemergence herbicidal evaluation; type: in vivo, Galium aparine; conditions: rated 4-5 weeks after treatment
Procedure, shortened: as §1

SETVI (Foxtail, Green) [4] = test: Preemergence herbicidal evaluation; type: in vivo, Setaria viridis; conditions: rated 4-5 weeks after treatment
Procedure, shortened: as §1

ABUTH (Velvetleaf) = test: Postemergence herbicidal evaluation; type: in vivo, Abutilon theophrasti; conditions: postemergence
Procedure, shortened: as §2

SETVI (Foxtail, Green) [5] = test: Postemergence herbicidal evaluation; type: in vivo, Setaria viridis; conditions: postemergence
Procedure, shortened: as §2

[6] = system: SAGPY (Arrowhead (Pygmaea)); test: Postemergence weed control under flooded paddy conditions; type: in vivo, Sagittaria pygmaea; conditions: postemergence weeds
Procedure, shortened: as §3

[7] = system: CHEAL (Lambsquarters, Common); test: Postemergence herbicidal evaluation; type: in vivo, Chenopodium album; conditions: postemergence
Procedure, shortened: as §2

[8] = rate 0.0313 kg/ha, 3-4 weeks after treatment
[9] = rate 0.0625 kg/ha, 3-4 weeks after treatment
[10] = rate 0.1250 kg/ha, 3-4 weeks after treatment
[11] = rate 0.2500 kg/ha, 3-4 weeks after treatment
[12] = Rate 0.0313 kg/ha, rated 3 to 4 weeks after treatment
[13] = Rate 0.0625 kg/ha, rated 3 to 4 weeks after treatment
[14] = Rate 0.1250 kg/ha, rated 3 to 4 weeks after treatment
[15] = Rate 0.2500 kg/ha, rated 3 to 4 weeks after treatment

CCOC(=O)/C=C1/S/C(=N/c2cc(-n3c(=O)cc(C(F)(F)F)n(C)c3=O)c(F)cc2Cl)N(CC(=O)OCC)C1=O [Compound 14]
AMBEL preemergence herbicidal rating (AMBEL (Ragweed, Common); rate 0.0313 kg/ha): 0.0 | AMBEL preemergence herbicidal rating (AMBEL (Ragweed, Common); rate 0.0625 kg/ha): 1.0 | AMBEL preemergence herbicidal rating (AMBEL (Ragweed, Common); rate 0.1250 kg/ha): 6.5 | AMBEL preemergence herbicidal rating (AMBEL (Ragweed, Common); rate 0.2500 kg/ha): 9.0 | AMBEL preemergence herbicidal rating (AMBEL (Ragweed, Common); rate 0.5000 kg/ha): 9.0 | ZEAMX herbicidal rating (ZEAMX (Corn, Field); rate 0.0156 kg/ha): 7.0 | ZEAMX herbicidal rating (ZEAMX (Corn, Field); rate 0.0313 kg/ha): 7.0 | ZEAMX herbicidal rating (ZEAMX (Corn, Field); rate 0.0625 kg/ha): 7.5 | ZEAMX herbicidal rating (ZEAMX (Corn, Field); rate 0.1250 kg/ha): 7.5 | Herbicidal rating ECHORC [1, 8]: 0.8 | Herbicidal rating ECHORC [1, 9]: 2.3 | Herbicidal rating ECHORC [1, 10]: 3.8 | Herbicidal rating ECHORC [1, 11]: 7.0 | Herbicidal rating CYPIR (CYPIR (Rice Flatsedge); 0.0313 kg/ha): 2.0 | Herbicidal rating CYPIR (CYPIR (Rice Flatsedge); 0.0625 kg/ha): 2.5 | Herbicidal rating CYPIR (CYPIR (Rice Flatsedge); 0.1250 kg/ha): 4.5 | Herbicidal rating CYPIR (CYPIR (Rice Flatsedge); 0.2500 kg/ha): 0.0 | ORYSAT herbicidal rating (ORYSAT (Rice, Tebonnet); rate 0.0156 kg/ha): 3.5 | ORYSAT herbicidal rating (ORYSAT (Rice, Tebonnet); rate 0.0313 kg/ha): 5.5 | ORYSAT herbicidal rating (ORYSAT (Rice, Tebonnet); rate 0.0625 kg/ha): 6.0 | ORYSAT herbicidal rating (ORYSAT (Rice, Tebonnet); rate 0.1250 kg/ha): 8.5 | TRZAWR herbicidal rating ([2]; rate 0.0156 kg/ha): 5.5 | TRZAWR herbicidal rating ([2]; rate 0.0313 kg/ha): 6.0 | TRZAWR herbicidal rating ([2]; rate 0.0625 kg/ha): 7.5 | TRZAWR herbicidal rating ([2]; rate 0.1250 kg/ha): 9.0 | GLXMAW herbicidal rating ([3]; rate 0.0156 kg/ha): 6.0 | GLXMAW herbicidal rating ([3]; rate 0.0313 kg/ha): 8.0 | GLXMAW herbicidal rating ([3]; rate 0.0625 kg/ha): 9.0 | GLXMAW herbicidal rating ([3]; rate 0.1250 kg/ha): 8.5 | Herbicidal rating CYPSE (CYPSE (Flatsedge); [8]): 0.0 | Herbicidal rating CYPSE (CYPSE (Flatsedge); [9]): 0.0 | Herbicidal rating CYPSE (CYPSE (Flatsedge); [10]): 1.5 | Herbicidal rating CYPSE (CYPSE (Flatsedge); [11]): 0.0 | GALAP preemergence herbicidal rating (GALAP (Galium); rate 0.0313 kg/ha): 0.0 | GALAP preemergence herbicidal rating (GALAP (Galium); rate 0.0625 kg/ha): 0.0 | GALAP preemergence herbicidal rating (GALAP (Galium); rate 0.1250 kg/ha): 9.0 | GALAP preemergence herbicidal rating (GALAP (Galium); rate 0.2500 kg/ha): 9.0 | SETVI preemergence herbicidal rating (SETVI (Foxtail, Green) [4]; rate 0.0313 kg/ha): 0.5 | SETVI preemergence herbicidal rating (SETVI (Foxtail, Green) [4]; rate 0.0625 kg/ha): 0.5 | SETVI preemergence herbicidal rating (SETVI (Foxtail, Green) [4]; rate 0.1250 kg/ha): 6.5 | SETVI preemergence herbicidal rating (SETVI (Foxtail, Green) [4]; rate 0.2500 kg/ha): 9.0 | SETVI preemergence herbicidal rating (SETVI (Foxtail, Green) [4]; rate 0.5000 kg/ha): 9.0 | ABUTH herbicidal rating (ABUTH (Velvetleaf); rate 0.0156 kg/ha): 9.0 | ABUTH herbicidal rating (ABUTH (Velvetleaf); rate 0.0313 kg/ha): 9.0 | ABUTH herbicidal rating (ABUTH (Velvetleaf); rate 0.0625 kg/ha): 9.0 | ABUTH herbicidal rating (ABUTH (Velvetleaf); rate 0.1250 kg/ha): 9.0 | SETVI herbicidal rating (SETVI (Foxtail, Green) [5]; rate 0.0156 kg/ha): 7.0 | SETVI herbicidal rating (SETVI (Foxtail, Green) [5]; rate 0.0313 kg/ha): 8.0 | SETVI herbicidal rating (SETVI (Foxtail, Green) [5]; rate 0.0625 kg/ha): 9.0 | SETVI herbicidal rating (SETVI (Foxtail, Green) [5]; rate 0.1250 kg/ha): 9.0 | Herbicidal rating SAGPY [6, 8]: 0.0 | Herbicidal rating SAGPY [6, 9]: 0.0 | Herbicidal rating SAGPY [6, 10]: 0.0 | Herbicidal rating SAGPY [6, 11]: 0.0 | CHEAL herbicidal rating ([7]; rate 0.0156 kg/ha): 9.0 | CHEAL herbicidal rating ([7]; rate 0.0313 kg/ha): 9.0 | CHEAL herbicidal rating ([7]; rate 0.0625 kg/ha): 9.0 | CHEAL herbicidal rating ([7]; rate 0.1250 kg/ha): 9.0

COC(=O)C(Cc1ccc(Cl)cc1)N1C(=O)CSC1=Nc1cc(-n2c(=O)cc(C(F)(F)F)n(C)c2=O)c(F)cc1Cl (racemic) [Compound 77, Methyl α-(p-chlorobenzyl)-2-{{2-chloro-5-[3,6-dihydro-3-methyl-2,6-dioxo-4-(trifluoromethyl)-1(2H)-pyrimidinyl]-4-fluorophenyl}imino}-4-oxo-3-thiazolidineacetate, DL-]
Preemergence herbicidal rating AMBEL (AMBEL (Ragweed, Common); rate 0.0156 kg/ha): 0.0 | Preemergence herbicidal rating AMBEL (AMBEL (Ragweed, Common); rate 0.0313 kg/ha): 2.0 | Preemergence herbicidal rating AMBEL (AMBEL (Ragweed, Common); rate 0.0625 kg/ha): 1.0 | Preemergence herbicidal rating AMBEL (AMBEL (Ragweed, Common); rate 0.1250 kg/ha): 2.0 | Preemergence herbicidal rating AMBEL (AMBEL (Ragweed, Common); rate 0.2500 kg/ha): 7.0 | ZEAMX herbicidal rating (ZEAMX (Corn, Field); rate 0.0158 kg/ha): 4.0 | ZEAMX herbicidal rating (ZEAMX (Corn, Field); rate 0.0315 kg/ha): 3.5 | ZEAMX herbicidal rating (ZEAMX (Corn, Field); rate 0.0630 kg/ha): 4.5 | Herbicidal rating ECHORC [1, 12]: 9.0 | Herbicidal rating ECHORC [1, 13]: 9.0 | Herbicidal rating ECHORC [1, 14]: 9.0 | Herbicidal rating ECHORC [1, 15]: 9.0 | CYPIR herbicidal effect rating (CYPIR (Rice Flatsedge); 0.0313 kg/ha): 0.0 | CYPIR herbicidal effect rating (CYPIR (Rice Flatsedge); 0.0625 kg/ha): 0.0 | CYPIR herbicidal effect rating (CYPIR (Rice Flatsedge); 0.1250 kg/ha): 0.0 | CYPIR herbicidal effect rating (CYPIR (Rice Flatsedge); 0.2500 kg/ha): 0.0 | ORYSAT herbicidal rating (ORYSAT (Rice, Tebonnet); rate 0.0158 kg/ha): 2.0 | ORYSAT herbicidal rating (ORYSAT (Rice, Tebonnet); rate 0.0315 kg/ha): 2.0 | ORYSAT herbicidal rating (ORYSAT (Rice, Tebonnet); rate 0.0630 kg/ha): 3.0 | TRZAWR herbicidal rating ([2]; rate 0.0158 kg/ha): 3.0 | TRZAWR herbicidal rating ([2]; rate 0.0315 kg/ha): 2.5 | TRZAWR herbicidal rating ([2]; rate 0.0630 kg/ha): 3.0 | GLXMAW herbicidal rating ([3]; rate 0.0158 kg/ha): 3.5 | GLXMAW herbicidal rating ([3]; rate 0.0315 kg/ha): 5.0 | GLXMAW herbicidal rating ([3]; rate 0.0630 kg/ha): 5.0 | Herbicidal rating CYPSE (CYPSE (Flatsedge); [12]): 0.0 | Herbicidal rating CYPSE (CYPSE (Flatsedge); [13]): 0.0 | Herbicidal rating CYPSE (CYPSE (Flatsedge); [14]): 0.0 | Herbicidal rating CYPSE (CYPSE (Flatsedge); [15]): 4.0 | Preemergence herbicidal rating GALAP (GALAP (Galium); rate 0.0156 kg/ha): 0.0 | Preemergence herbicidal rating GALAP (GALAP (Galium); rate 0.0313 kg/ha): 0.0 | Preemergence herbicidal rating GALAP (GALAP (Galium); rate 0.0625 kg/ha): 0.0 | Preemergence herbicidal rating GALAP (GALAP (Galium); rate 0.1250 kg/ha): 1.0 | Preemergence herbicidal rating GALAP (GALAP (Galium); rate 0.2500 kg/ha): 1.0 | Preemergence herbicidal rating SETVI (SETVI (Foxtail, Green) [4]; rate 0.0156 kg/ha): 0.0 | Preemergence herbicidal rating SETVI (SETVI (Foxtail, Green) [4]; rate 0.0313 kg/ha): 0.0 | Preemergence herbicidal rating SETVI (SETVI (Foxtail, Green) [4]; rate 0.0625 kg/ha): 0.0 | Preemergence herbicidal rating SETVI (SETVI (Foxtail, Green) [4]; rate 0.1250 kg/ha): 0.0 | Preemergence herbicidal rating SETVI (SETVI (Foxtail, Green) [4]; rate 0.2500 kg/ha): 9.0 | ABUTH herbicidal rating (ABUTH (Velvetleaf); rate 0.0158 kg/ha): 9.0 | ABUTH herbicidal rating (ABUTH (Velvetleaf); rate 0.0315 kg/ha): 9.0 | ABUTH herbicidal rating (ABUTH (Velvetleaf); rate 0.0630 kg/ha): 9.0 | SETVI herbicidal rating (SETVI (Foxtail, Green) [5]; rate 0.0158 kg/ha): 1.0 | SETVI herbicidal rating (SETVI (Foxtail, Green) [5]; rate 0.0315 kg/ha): 6.0 | SETVI herbicidal rating (SETVI (Foxtail, Green) [5]; rate 0.0630 kg/ha): 7.0 | Herbicidal rating SAGPY [6, 12]: 0.0 | Herbicidal rating SAGPY [6, 13]: 0.0 | Herbicidal rating SAGPY [6, 14]: 0.0 | Herbicidal rating SAGPY [6, 15]: 0.0 | CHEAL herbicidal rating ([7]; rate 0.0158 kg/ha): 6.0 | CHEAL herbicidal rating ([7]; rate 0.0315 kg/ha): 9.0 | CHEAL herbicidal rating ([7]; rate 0.0630 kg/ha): 9.0
